{"source": "paper PMC3156297", "about": "(2011)", "biological_target": "T1, soluble epoxide hydrolase (sEH) (Homo sapiens, UniProt P34913)", "T1 sequence (P34913 1-555)": "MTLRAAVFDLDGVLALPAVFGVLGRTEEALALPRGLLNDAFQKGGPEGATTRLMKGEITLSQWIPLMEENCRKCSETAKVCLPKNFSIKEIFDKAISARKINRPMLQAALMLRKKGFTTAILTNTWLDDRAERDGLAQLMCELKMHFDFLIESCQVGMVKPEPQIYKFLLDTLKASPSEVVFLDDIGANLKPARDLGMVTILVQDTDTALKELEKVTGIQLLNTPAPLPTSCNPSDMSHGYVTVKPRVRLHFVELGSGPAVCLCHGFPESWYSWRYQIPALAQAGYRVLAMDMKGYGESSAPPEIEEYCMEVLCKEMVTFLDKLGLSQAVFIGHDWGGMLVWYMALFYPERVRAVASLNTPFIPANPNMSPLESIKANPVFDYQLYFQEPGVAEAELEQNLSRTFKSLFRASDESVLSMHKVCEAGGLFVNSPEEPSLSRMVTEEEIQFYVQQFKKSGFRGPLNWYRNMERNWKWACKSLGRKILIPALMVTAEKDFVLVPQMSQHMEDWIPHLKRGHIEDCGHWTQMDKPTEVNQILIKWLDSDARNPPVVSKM", "assay": "recombinant enzyme inhibition", "format": "biochemical", "note": "pKi: −log10 of the molar value."}
{"compound": "O=C(Nc1ccc(Cl)cc1)Nc1ccc(Cl)c(Cl)c1", "note": "[TCC, 3,4,4′-trichlorocarbanilide]", "values": [{"measurement": "pKi", "value": 7.02}]}
